Data: PubChem BioAssay AID1259407 (Chemical Carcinogenesis Research Information System (CCRIS), 2018)
Calls of active or inactive are those of the source. How the calls were made is not given here.

Tested on: CCRIS mutagenicity, Ames/micronucleus/aberration tests
Assay: CCRIS mutagenicity studies
[1] = Test System: AMES SALMONELLA TYPHIMURIUM, Strain/Indicator: TA100, Metabolic Activation: NONE, Method: STANDARD PLATE
[2] = Test System: AMES SALMONELLA TYPHIMURIUM, Strain/Indicator: TA98, Metabolic Activation: NONE, Method: STANDARD PLATE
[3] = Test System: AMES SALMONELLA TYPHIMURIUM, Strain/Indicator: TA98, Metabolic Activation: RAT, LIVER, S-9, AROCLOR 1254, Method: STANDARD PLATE
[4] = Test System: AMES SALMONELLA TYPHIMURIUM, Strain/Indicator: TA100, Metabolic Activation: RAT, LIVER, S-9, AROCLOR 1254, Method: STANDARD PLATE

**Q.** C[C@H](CCN=[N+]=[N-])c1ccccc1 was tested. Which mutagenic call (Test System: AMES SALMONELLA TYPHIMURIUM, Strain/Indicator: TA100, Metabolic Activation: RAT, LIVER, S-9, PCB, Method: PREINCUBATION) did it give?
**A.** active; positive

**Q.** For C[C@H](Br)C(=O)NCc1ccccc1, which mutagenic call [1] is on record?
**A.** active; positive

**Q.** How did the mutagenic call (Test System: AMES SALMONELLA TYPHIMURIUM, Strain/Indicator: TA97, Metabolic Activation: RAT, LIVER, S-9, PHENOBARBITAL AND 5,6-BENZOFLAVONE, BETA-GLUCOSIDASE, Method: PREINCUBATION) turn out when O=c1c2c(O)cc(O)cc2oc2c(O)ccc(O[C@@H]3O[C@H](CO)[C@@H](O)[C@H](O)[C@H]3O)c12 was run?
**A.** active; positive

**Q.** And the mutagenic call (Test System: AMES SALMONELLA TYPHIMURIUM, Strain/Indicator: TA98, Metabolic Activation: RAT, LIVER, S-9, PHENOBARBITAL AND 5,6-BENZOFLAVONE, BETA-GLUCOSIDASE, Method: PREINCUBATION)?
**A.** inactive; negative

**Q.** What about the mutagenic call (Test System: AMES SALMONELLA TYPHIMURIUM, Strain/Indicator: TA100, Metabolic Activation: RAT, LIVER, S-9, PHENOBARBITAL AND 5,6-BENZOFLAVONE, BETA-GLUCOSIDASE, Method: PREINCUBATION) of the same molecule?
**A.** active; positive

**Q.** And the mutagenic call (Test System: AMES SALMONELLA TYPHIMURIUM, Strain/Indicator: TA2637, Metabolic Activation: RAT, LIVER, S-9, PHENOBARBITAL AND 5,6-BENZOFLAVONE, BETA-GLUCOSIDASE, Method: PREINCUBATION)?
**A.** active; positive

**Q.** How did the mutagenic call (Test System: AMES SALMONELLA TYPHIMURIUM, Strain/Indicator: TA100, Metabolic Activation: NONE, Method: SUSPENSION) turn out when CNP(=O)(NC)NC was run?
**A.** inactive; negative

**Q.** What about the mutagenic call (Test System: AMES SALMONELLA TYPHIMURIUM, Strain/Indicator: TA100, Metabolic Activation: RAT, LIVER, S-9, AROCLOR 1254, Method: SUSPENSION) of the same molecule?
**A.** inactive; negative

**Q.** What does the source list for CCCSC(=O)Cl?
**A.** mutagenic call (Test System: AMES SALMONELLA TYPHIMURIUM, Strain/Indicator: TA97, Metabolic Activation: HAMSTER, LIVER, S-9, AROCLOR 1254 (30%), Method: PREINCUBATION): inactive; negative; mutagenic call (Test System: AMES SALMONELLA TYPHIMURIUM, Strain/Indicator: TA97, Metabolic Activation: NONE, Method: PREINCUBATION): inactive; negative; mutagenic call (Test System: AMES SALMONELLA TYPHIMURIUM, Strain/Indicator: TA97, Metabolic Activation: RAT, LIVER, S-9, AROCLOR 1254 (30%), Method: PREINCUBATION): inactive; negative; mutagenic call (Test System: AMES SALMONELLA TYPHIMURIUM, Strain/Indicator: TA98, Metabolic Activation: HAMSTER, LIVER, S-9, AROCLOR 1254 (30%), Method: PREINCUBATION): inactive; negative; mutagenic call (Test System: AMES SALMONELLA TYPHIMURIUM, Strain/Indicator: TA98, Metabolic Activation: NONE, Method: PREINCUBATION): inactive; negative; mutagenic call (Test System: AMES SALMONELLA TYPHIMURIUM, Strain/Indicator: TA98, Metabolic Activation: RAT, LIVER, S-9, AROCLOR 1254 (30%), Method: PREINCUBATION): inactive; negative; mutagenic call (Test System: AMES SALMONELLA TYPHIMURIUM, Strain/Indicator: TA100, Metabolic Activation: HAMSTER, LIVER, S-9, AROCLOR 1254 (30%), Method: PREINCUBATION): inactive; negative; mutagenic call (Test System: AMES SALMONELLA TYPHIMURIUM, Strain/Indicator: TA100, Metabolic Activation: NONE, Method: PREINCUBATION): inactive; negative; mutagenic call (Test System: AMES SALMONELLA TYPHIMURIUM, Strain/Indicator: TA100, Metabolic Activation: RAT, LIVER, S-9, AROCLOR 1254 (30%), Method: PREINCUBATION): inactive; negative; mutagenic call (Test System: AMES SALMONELLA TYPHIMURIUM, Strain/Indicator: TA1535, Metabolic Activation: HAMSTER, LIVER, S-9, AROCLOR 1254 (5%), Method: PREINCUBATION): inactive; negative; mutagenic call (Test System: AMES SALMONELLA TYPHIMURIUM, Strain/Indicator: TA1535, Metabolic Activation: HAMSTER, LIVER, S-9, AROCLOR 1254 (10%), Method: PREINCUBATION): active; positive; mutagenic call (Test System: AMES SALMONELLA TYPHIMURIUM, Strain/Indicator: TA1535, Metabolic Activation: HAMSTER, LIVER, S-9, AROCLOR 1254 (30%), Method: PREINCUBATION): active; positive; mutagenic call (Test System: AMES SALMONELLA TYPHIMURIUM, Strain/Indicator: TA1535, Metabolic Activation: NONE, Method: PREINCUBATION): inactive; negative; mutagenic call (Test System: AMES SALMONELLA TYPHIMURIUM, Strain/Indicator: TA1535, Metabolic Activation: RAT, LIVER, S-9, AROCLOR 1254 (30%), Method: PREINCUBATION): inactive; negative; mutagenic call (Test System: AMES SALMONELLA TYPHIMURIUM, Strain/Indicator: TA1537, Metabolic Activation: HAMSTER, LIVER, S-9, AROCLOR 1254 (30%), Method: PREINCUBATION): inactive; negative; mutagenic call (Test System: AMES SALMONELLA TYPHIMURIUM, Strain/Indicator: TA1537, Metabolic Activation: NONE, Method: PREINCUBATION): inactive; negative; mutagenic call (Test System: AMES SALMONELLA TYPHIMURIUM, Strain/Indicator: TA1537, Metabolic Activation: RAT, LIVER, S-9, AROCLOR 1254 (30%), Method: PREINCUBATION): inactive; negative

**Q.** What does the source list for [S]=[Co]?
**A.** mutagenic call (Test System: CHINESE HAMSTER G10, Strain/Indicator: G10 (GPT)/6-THIOGUANINE, Metabolic Activation: NONE): inactive; negative; mutagenic call (Test System: CHINESE HAMSTER G12, Strain/Indicator: G12 (GPT)/6-THIOGUANINE, Metabolic Activation: NONE): active; positive; mutagenic call (Test System: CHINESE HAMSTER V-79, Strain/Indicator: V-79 (HPRT)/6-THIOGUANINE, Metabolic Activation: NONE): inactive; negative

**Q.** For Cn1c([N+](=O)[O-])cnc1C1NC(CO)(CO)CO1 (centres undefined), which mutagenic call (Test System: AMES SALMONELLA TYPHIMURIUM, Strain/Indicator: TA97, Metabolic Activation: NONE, Method: STANDARD PLATE) is on record?
**A.** active; positive

**Q.** What about the mutagenic call (Test System: AMES SALMONELLA TYPHIMURIUM, Strain/Indicator: TA97, Metabolic Activation: RAT, LIVER, S-9, AROCLOR 1254, Method: STANDARD PLATE) of the same molecule?
**A.** active; positive

**Q.** What about the mutagenic call [2] of the same molecule?
**A.** active; positive

**Q.** And the mutagenic call [3]?
**A.** active; positive

**Q.** What about the mutagenic call [1] of the same molecule?
**A.** active; positive

**Q.** What about the mutagenic call [4] of the same molecule?
**A.** active; positive

**Q.** What about the mutagenic call (Test System: AMES SALMONELLA TYPHIMURIUM, Strain/Indicator: TA102, Metabolic Activation: NONE, Method: STANDARD PLATE) of the same molecule?
**A.** active; positive

**Q.** What about the mutagenic call (Test System: AMES SALMONELLA TYPHIMURIUM, Strain/Indicator: TA102, Metabolic Activation: RAT, LIVER, S-9, AROCLOR 1254, Method: STANDARD PLATE) of the same molecule?
**A.** active; positive

**Q.** What does the source list for O=[N+]([O-])C1=Cc2c3c1cccc3cc1ccc3ccccc3c21?
**A.** mutagenic call [2]: active; positive; mutagenic call [3]: active; positive; mutagenic call [1]: inactive; negative; mutagenic call [4]: inactive; negative; mutagenic call (Test System: AMES SALMONELLA TYPHIMURIUM, Strain/Indicator: TA1535, Metabolic Activation: NONE, Method: STANDARD PLATE): inactive; negative; mutagenic call (Test System: AMES SALMONELLA TYPHIMURIUM, Strain/Indicator: TA1535, Metabolic Activation: RAT, LIVER, S-9, AROCLOR 1254, Method: STANDARD PLATE): inactive; negative; mutagenic call (Test System: AMES SALMONELLA TYPHIMURIUM, Strain/Indicator: TA1537, Metabolic Activation: NONE, Method: STANDARD PLATE): active; positive; mutagenic call (Test System: AMES SALMONELLA TYPHIMURIUM, Strain/Indicator: TA1537, Metabolic Activation: RAT, LIVER, S-9, AROCLOR 1254, Method: STANDARD PLATE): inactive; negative; mutagenic call (Test System: AMES SALMONELLA TYPHIMURIUM, Strain/Indicator: TA1538, Metabolic Activation: NONE, Method: STANDARD PLATE): active; positive; mutagenic call (Test System: AMES SALMONELLA TYPHIMURIUM, Strain/Indicator: TA1538, Metabolic Activation: RAT, LIVER, S-9, AROCLOR 1254, Method: STANDARD PLATE): active; positive

**Q.** Which mutagenic call [2] does the source give for BrCc1ccc(CBr)cc1 here?
**A.** inactive; negative

**Q.** What about the mutagenic call [1] of the same molecule?
**A.** inactive; negative

**Q.** How did the mutagenic call (Test System: Mouse lymphoma, Strain/Indicator: L5178Y (tk+/tk-), Metabolic Activation: None, Method: Suspension/plate) turn out when CCC1(O)C(=O)OCc2c1cc1n(c2=O)Cc2cc3c(N)cccc3nc2-1 (centres undefined) was run?
**A.** active; positive

**Q.** And the mutagenic call (Test System: Mouse lymphoma, Strain/Indicator: L5178Y (tk+/tk-), Metabolic Activation: Rat, Liver, S-9, Aroclor 1254, Method: Suspension/plate)?
**A.** active; positive

**Q.** Which results are given for Clc1ccc2oc3ccccc3c2c1?
**A.** mutagenic call [2]: active; positive; mutagenic call (Test System: AMES SALMONELLA TYPHIMURIUM, Strain/Indicator: TA98, Metabolic Activation: RAT, LIVER, S-9, PHENOBARBITAL AND NAPHTHOFLAVONE, Method: STANDARD PLATE): active; positive; mutagenic call [1]: inactive; negative; mutagenic call (Test System: AMES SALMONELLA TYPHIMURIUM, Strain/Indicator: TA100, Metabolic Activation: RAT, LIVER, S-9, PHENOBARBITAL AND NAPHTHOFLAVONE, Method: STANDARD PLATE): inactive; negative
